Reference: ChEMBL document CHEMBL1201862, “PubChem BioAssay data set” (2004)
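Exposure lasted 48 hours, with cells grown in 96-well plates and compounds tested at five concentrations. GI50 is the concentration that inhibits growth by half.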 Calls of active or inactive are those of the source. Cut-off read from the data, not from the text of the source: active = GI50 up to about 1.1 µM and inactive = higher.

Legend:
Assay in all cases: NCI-60 cell line screen, 48 h
SF-268 = system: SF-268
HT-29 = system: HT-29
UACC-62 = system: UACC-62
RPMI-8226 = system: RPMI-8226
NCI-H460 = system: NCI-H460
SK-OV-3 = system: SK-OV-3
OVCAR-5 = system: OVCAR-5
MOLT-4 = system: MOLT-4
SK-MEL-5 = system: SK-MEL-5
M14 = system: M14
NCI-H522 = system: NCI-H522
SN12C = system: SN12C
SF-295 = system: SF-295
SNB-75 = system: SNB-75
BT-549 = system: BT-549
IGROV-1 = system: IGROV-1
MDA-MB-435 = system: MDA-MB-435
UACC-257 = system: UACC-257
LOX IMVI = system: LOX IMVI
KM12 = system: KM12
HCT-15 = system: HCT-15
K562 = system: K562
HCT-116 = system: HCT-116
SNB-19 = system: SNB-19
PC-3 = system: PC-3
DU-145 = system: DU-145
COLO 205 = system: COLO 205
OVCAR-8 = system: OVCAR-8
OVCAR-3 = system: OVCAR-3
NCI-H226 = system: NCI-H226
EKVX = system: EKVX
SK-MEL-28 = system: SK-MEL-28
TK-10 = system: TK-10
CCRF-CEM = system: CCRF-CEM
MCF7 = system: MCF7
SR = system: SR
Malme-3M = system: Malme-3M
SK-MEL-2 = system: SK-MEL-2
A549 = system: A549
NCI/ADR-RES = system: NCI/ADR-RES
CAKI-1 = system: CAKI-1
NCI-H23 = system: NCI-H23
MDA-N = system: MDA-N
T47D = system: T47D
786-0 = system: 786-0
MDA-MB-231 = system: MDA-MB-231
HOP-62 = system: HOP-62
SW-620 = system: SW-620
Hs-578T = system: Hs-578T
A498 = system: A498
ACHN = system: ACHN
HOP-92 = system: HOP-92
OVCAR-4 = system: OVCAR-4
RXF 393 = system: RXF 393
U-251 = system: U-251
UO-31 = system: UO-31
SF-539 = system: SF-539
HCC 2998 = system: HCC 2998

O=C(O)C12CC3(C(=O)O)CC(C(=O)O)(CC(C(=O)O)(C1)C3=O)C2=O
GI50 (SF-268): > 100 µM (inactive) | GI50 (HT-29): > 100 µM (inactive) | GI50 (UACC-62): > 100 µM (inactive) | GI50 (RPMI-8226): > 100 µM (inactive) | GI50 (NCI-H460): > 100 µM (inactive) | GI50 (SK-OV-3): > 100 µM (inactive) | GI50 (OVCAR-5): > 100 µM (inactive) | GI50 (MOLT-4): > 100 µM (inactive) | GI50 (SK-MEL-5): > 100 µM (inactive) | GI50 (M14): > 100 µM (inactive) | GI50 (NCI-H522): > 100 µM (inactive) | GI50 (SN12C): > 100 µM (inactive) | GI50 (SF-295): > 100 µM (inactive) | GI50 (SNB-75): > 100 µM (inactive) | GI50 (BT-549): > 100 µM (inactive) | GI50 (IGROV-1): > 100 µM (inactive) | GI50 (MDA-MB-435): > 100 µM (inactive) | GI50 (UACC-257): > 100 µM (inactive) | GI50 (LOX IMVI): > 100 µM (inactive) | GI50 (KM12): > 100 µM (inactive) | GI50 (HCT-15): > 100 µM | GI50 (K562): > 100 µM (inactive) | GI50 (HCT-116): > 100 µM (inactive) | GI50 (SNB-19): > 100 µM (inactive) | GI50 (PC-3): > 100 µM (inactive) | GI50 (DU-145): > 100 µM (inactive) | GI50 (COLO 205): > 100 µM (inactive) | GI50 (OVCAR-8): > 100 µM (inactive) | GI50 (OVCAR-3): > 100 µM (inactive) | GI50 (NCI-H226): > 100 µM (inactive) | GI50 (EKVX): > 100 µM (inactive) | GI50 (SK-MEL-28): > 100 µM (inactive) | GI50 (TK-10): > 100 µM (inactive) | GI50 (CCRF-CEM): > 100 µM (inactive) | GI50 (MCF7): > 100 µM (inactive) | GI50 (SR): > 100 µM (inactive) | GI50 (Malme-3M): > 100 µM (inactive) | GI50 (SK-MEL-2): > 100 µM (inactive) | GI50 (A549): > 100 µM (inactive) | GI50 (NCI/ADR-RES): > 100 µM (inactive) | GI50 (CAKI-1): > 100 µM (inactive) | GI50 (NCI-H23): > 100 µM (inactive) | GI50 (MDA-N): > 100 µM (inactive) | GI50 (T47D): > 100 µM (inactive) | GI50 (786-0): > 100 µM (inactive) | GI50 (MDA-MB-231): > 100 µM (inactive) | GI50 (HOP-62): > 100 µM (inactive) | GI50 (SW-620): > 100 µM (inactive) | GI50 (Hs-578T): > 100 µM (inactive) | GI50 (A498): > 100 µM (inactive) | GI50 (ACHN): > 100 µM (inactive) | GI50 (HOP-92): > 100 µM (inactive) | GI50 (OVCAR-4): > 100 µM (inactive) | GI50 (RXF 393): > 100 µM (inactive) | GI50 (U-251): > 100 µM (inactive) | GI50 (UO-31): > 100 µM (inactive)

C#CC(O)Cc1ccc(OC)c2occc12 (stereo unspecified)
GI50 (SF-268): > 100 µM (inactive) | GI50 (HT-29): > 100 µM (inactive) | GI50 (UACC-62): > 100 µM (inactive) | GI50 (RPMI-8226): > 100 µM (inactive) | GI50 (NCI-H460): > 100 µM (inactive) | GI50 (SK-OV-3): > 100 µM (inactive) | GI50 (OVCAR-5): > 100 µM (inactive) | GI50 (SK-MEL-5): > 100 µM (inactive) | GI50 (M14): > 100 µM (inactive) | GI50 (NCI-H522): > 100 µM (inactive) | GI50 (SN12C): > 100 µM (inactive) | GI50 (SF-295): > 100 µM (inactive) | GI50 (SNB-75): 52.1 µM (inactive) | GI50 (BT-549): > 100 µM (inactive) | GI50 (IGROV-1): > 100 µM (inactive) | GI50 (MDA-MB-435): > 100 µM (inactive) | GI50 (UACC-257): > 100 µM (inactive) | GI50 (LOX IMVI): > 100 µM (inactive) | GI50 (KM12): > 100 µM (inactive) | GI50 (HCT-15): > 100 µM | GI50 (K562): > 100 µM (inactive) | GI50 (SF-539): > 100 µM (inactive) | GI50 (HCT-116): > 100 µM (inactive) | GI50 (SNB-19): > 100 µM (inactive) | GI50 (PC-3): > 100 µM (inactive) | GI50 (DU-145): > 100 µM (inactive) | GI50 (COLO 205): > 100 µM (inactive) | GI50 (OVCAR-8): > 100 µM (inactive) | GI50 (OVCAR-3): > 100 µM (inactive) | GI50 (NCI-H226): > 100 µM (inactive) | GI50 (EKVX): 69.3 µM (inactive) | GI50 (TK-10): > 100 µM (inactive) | GI50 (HCC 2998): > 100 µM (inactive) | GI50 (MCF7): > 100 µM (inactive) | GI50 (SR): > 100 µM (inactive) | GI50 (Malme-3M): > 100 µM (inactive) | GI50 (SK-MEL-2): > 100 µM (inactive) | GI50 (A549): > 100 µM (inactive) | GI50 (NCI/ADR-RES): > 100 µM (inactive) | GI50 (CAKI-1): > 100 µM (inactive) | GI50 (NCI-H23): > 100 µM (inactive) | GI50 (MDA-N): > 100 µM (inactive) | GI50 (T47D): > 100 µM (inactive) | GI50 (786-0): > 100 µM (inactive) | GI50 (MDA-MB-231): > 100 µM (inactive) | GI50 (HOP-62): > 100 µM (inactive) | GI50 (SW-620): > 100 µM (inactive) | GI50 (Hs-578T): > 100 µM (inactive) | GI50 (A498): > 100 µM (inactive) | GI50 (ACHN): > 100 µM (inactive) | GI50 (HOP-92): > 100 µM (inactive) | GI50 (OVCAR-4): > 100 µM (inactive) | GI50 (RXF 393): > 100 µM (inactive) | GI50 (U-251): > 100 µM (inactive) | GI50 (UO-31): > 100 µM (inactive)
